{"source": "PubChem BioAssay AID2060618", "about": "(Molecular Pharmacology Branch, DTP, NCI, 2025)", "system": "454973-116-R2-J3-PDC spheroids, percent test/control viability", "test": "Anticancer human tumor 454973-116-R2-J3-PDC patient-derived pancreatic carcinoma cell line growth inhibition [CLK]", "conditions": "spheroids with HUVEC and MSC; for viability, T/C: stronger effect = lower value", "outline": "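Multi-cell-type spheroids combined patient-derived tumor cells with HUVEC endothelial cells and human mesenchymal stem cells. Paired agents were dosed in half-log steps down from about clinical Cmax, or from 10 microM where Cmax was unknown.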", "note": "“And” between values parts separate entries of the source, which are not always exact repeats. Equal entries are not always repeated.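 Also: spheroids exposed to compounds for 7 days before readout.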", "data": [{"smiles": "CC(=O)O[C@H]1C(=O)[C@@]2(C)[C@H]([C@H](OC(=O)c3ccccc3)[C@]3(O)C[C@H](OC(=O)[C@H](O)[C@@H](NC(=O)c4ccccc4)c4ccccc4)C(C)=C1C3(C)C)[C@]1(OC(C)=O)CO[C@@H]1C[C@@H]2O", "note": "+ CNC(=O)c1ccc(Nc2nc(OC3CCCC3)c3c(-c4ccc5nc(C)oc5c4)c[nH]c3n2)c(OC)c1", "values": [{"measurement": "IC50", "setting": "curve of first compound, second compound 0.0316 µM", "result": "< 31.6", "unit": "nM"}, {"measurement": "IC50", "setting": "curve of first compound, second compound 0.1 µM", "result": "< 31.6", "unit": "nM"}, {"measurement": "IC50", "setting": "curve of first compound, second compound 0.316 µM", "result": "< 31.6", "unit": "nM"}, {"measurement": "IC50", "setting": "curve of first compound, second compound 1 µM", "result": "< 31.6", "unit": "nM"}, {"measurement": "IC50", "setting": "curve of first compound, second compound 3.16 µM", "result": "< 31.6", "unit": "nM"}, {"measurement": "IC50", "setting": "curve of first compound, second compound 10 µM", "result": "< 31.6", "unit": "nM"}, {"measurement": "viability, T/C", "setting": "second compound 0.0316 µM, first compound 0.0316 µM", "result": 7.2, "unit": "%"}, {"measurement": "viability, T/C", "setting": "second compound 0.0316 µM, first compound 0.1 µM", "result": 10.3, "unit": "%"}, {"measurement": "viability, T/C", "setting": "second compound 0.0316 µM, first compound 0.316 µM", "result": 8.05, "unit": "%"}, {"measurement": "viability, T/C", "setting": "second compound 0.0316 µM, first compound 1 µM", "result": 8.91, "unit": "%"}, {"measurement": "viability, T/C", "setting": "second compound 0.0316 µM, first compound 3.16 µM", "result": 7.98, "unit": "%"}, {"measurement": "viability, T/C", "setting": "second compound 0.0316 µM, first compound 10 µM", "result": 26.6, "unit": "%"}, {"measurement": "viability, T/C", "setting": "second compound 0.1 µM, first compound 0.0316 µM", "result": 10.1, "unit": "%"}, {"measurement": "viability, T/C", "setting": "second compound 0.1 µM, first compound 0.1 µM", "result": 8.61, "unit": "%"}, {"measurement": "viability, T/C", "setting": "second compound 0.1 µM, first compound 0.316 µM", "result": 9.22, "unit": "%"}, {"measurement": "viability, T/C", "setting": "second compound 0.1 µM, first compound 1 µM", "result": 10.1, "unit": "%"}, {"measurement": "viability, T/C", "setting": "second compound 0.1 µM, first compound 3.16 µM", "result": 14.3, "unit": "%"}, {"measurement": "viability, T/C", "setting": "second compound 0.1 µM, first compound 10 µM", "result": 38, "unit": "%"}, {"measurement": "viability, T/C", "setting": "second compound 0.316 µM, first compound 0.0316 µM", "result": 33.1, "unit": "%"}, {"measurement": "viability, T/C", "setting": "second compound 0.316 µM, first compound 0.1 µM", "result": 39.2, "unit": "%"}, {"measurement": "viability, T/C", "setting": "second compound 0.316 µM, first compound 0.316 µM", "result": 43.9, "unit": "%"}, {"measurement": "viability, T/C", "setting": "second compound 0.316 µM, first compound 1 µM", "result": 48.2, "unit": "%"}, {"measurement": "viability, T/C", "setting": "second compound 0.316 µM, first compound 3.16 µM", "result": 83, "unit": "%"}, {"measurement": "viability, T/C", "setting": "second compound 0.316 µM, first compound 10 µM", "result": 110, "unit": "%"}, {"measurement": "viability, T/C", "setting": "second compound 1 µM, first compound 0.0316 µM", "result": 45.3, "unit": "%"}, {"measurement": "viability, T/C", "setting": "second compound 1 µM, first compound 0.1 µM", "result": 50.2, "unit": "%"}, {"measurement": "viability, T/C", "setting": "second compound 1 µM, first compound 0.316 µM", "result": 54.3, "unit": "%"}, {"measurement": "viability, T/C", "setting": "second compound 1 µM, first compound 1 µM", "result": 60.5, "unit": "%"}, {"measurement": "viability, T/C", "setting": "second compound 1 µM, first compound 3.16 µM", "result": 88.4, "unit": "%"}, {"measurement": "viability, T/C", "setting": "second compound 1 µM, first compound 10 µM", "result": 89.6, "unit": "%"}, {"measurement": "viability, T/C", "setting": "second compound 3.16 µM, first compound 0.0316 µM", "result": 38.8, "unit": "%"}, {"measurement": "viability, T/C", "setting": "second compound 3.16 µM, first compound 0.1 µM", "result": 46.5, "unit": "%"}, {"measurement": "viability, T/C", "setting": "second compound 3.16 µM, first compound 0.316 µM", "result": 54.1, "unit": "%"}, {"measurement": "viability, T/C", "setting": "second compound 3.16 µM, first compound 1 µM", "result": 51.5, "unit": "%"}, {"measurement": "viability, T/C", "setting": "second compound 3.16 µM, first compound 3.16 µM", "result": 74.2, "unit": "%"}, {"measurement": "viability, T/C", "setting": "second compound 3.16 µM, first compound 10 µM", "result": 86.5, "unit": "%"}, {"measurement": "viability, T/C", "setting": "second compound 10 µM, first compound 0.0316 µM", "result": 36.8, "unit": "%"}, {"measurement": "viability, T/C", "setting": "second compound 10 µM, first compound 0.1 µM", "result": 43.2, "unit": "%"}, {"measurement": "viability, T/C", "setting": "second compound 10 µM, first compound 0.316 µM", "result": 49.7, "unit": "%"}, {"measurement": "viability, T/C", "setting": "second compound 10 µM, first compound 1 µM", "result": 60.2, "unit": "%"}, {"measurement": "viability, T/C", "setting": "second compound 10 µM, first compound 3.16 µM", "result": 77.1, "unit": "%"}, {"measurement": "viability, T/C", "setting": "second compound 10 µM, first compound 10 µM", "result": 84.3, "unit": "%"}]}, {"smiles": "COc1cccc2c1C(=O)c1c(O)c3c(c(O)c1C2=O)CC(O)(C(=O)CO)CC3OC1CC(N)C(O)C(C)O1", "note": "(centres undefined)", "values": [{"measurement": "viability, T/C", "setting": "compound 0.0316 µM", "result": "58.7% and 49.7%"}, {"measurement": "viability, T/C", "setting": "compound 0.1 µM", "result": "23% and 19.8%"}, {"measurement": "viability, T/C", "setting": "compound 0.316 µM", "result": "21.2% and 19.8%"}, {"measurement": "viability, T/C", "setting": "compound 1 µM", "result": "6.76% and 3.88%"}, {"measurement": "viability, T/C", "setting": "compound 3.16 µM", "result": "0.39% and 1.8%"}, {"measurement": "viability, T/C", "setting": "compound 10 µM", "result": "2.07% and 3.53%"}, {"measurement": "IC50", "setting": "curve of compound", "result": "42.3 nM and < 31.6 nM"}]}]}
